Measured values: US20170224819A1, “Therapeutic Combinations of a BTK Inhibitor, a PI3K Inhibitor, a JAK-2 Inhibitor, and/or a CDK 4/6 Inhibitor” (Acerta Pharma B.V., priority 2014, published 2017)

How the values were obtained:
[1] = tested on: orthotopic pancreatic cancer (KPC derived cells); experiment: Orthotopic pancreatic cancer model (KPC cell line implanted in C57BL/6 mice); assay type: in vivo; settings: orthotopic PDA model, oral 15 mg/kg
Experimental: Cell line derived from KrasG12D; Trp53R172H; Pdxl-Cre (KPC) mice were orthotopically implantated into the head of the pancreas after 35 passages. Based on the mice background from where the cell lines were generated, 1×10^6 cells were injected in C57BL/6 mice. Throughout the experiment, animals were provided with food and water ad libitum and subjected to a 12-h dark/light cycle. Animal studies were performed in accordance with the U.S. Public Health Service “Guidelines for the Care and Use of Laboratory Animals” (IACUC). After euthanization, pancreatic tumors were dissected out, weighed and single cell suspensions were prepared for flow cytometry analysis.

NK cells = experiment: Antibody-dependent NK cell cytokine (IFN-γ) secretion, ELISA; assay type: cell-based, human; settings: 1 μM, HER18 target cells
Experimental: Cytokine secretion was determined as follows. […] NK cells from healthy donors were enriched as described above and then added to the target cells and incubated for 4 hours at 37° C. Triplicate cultures were performed on NK cells from donors. After incubation, supernatants were harvested, centrifuged briefly, and then analyzed for interferon-γ using an enzyme-linked immunosorbent assay (ELISA) (R&D Systems, Minneapolis, Minn., USA).

ID8 ovarian cancer = experiment: ID8 syngeneic orthotropic ovarian cancer murine model; assay type: in vivo, mice; settings: 15 mg/kg/BID orally
Excerpt: Human ovarian cancer models, including the ID8 syngeneic orthotropic ovarian cancer model and other animal models, are described in Fong and Kakar, J. Ovarian Res. 2009, 2, 12; Greenaway et al., Gynecol. Oncol. 2008, 108, 385-94; Urzua et al., Tumour Biol. 2005, 26, 236-44; Janat-Amsbury et al., Anticancer Res. 2006, 26, 3223-28; Janat-Amsbury et al., Anticancer Res. 2006, 26, 2785-89. […] The results of the study are shown in FIG. 108, FIG. 109, FIG. 110, FIG. 111, FIG. 112, FIG. 113, FIG. 114, and FIG. 115.

[2] = Study of respiratory function; settings: rats, doses through 300 mg/kg
canine B cell lymphoma = experiment: Veterinary clinical trial in companion dogs with lymphoma; assay type: in vivo
Experimental: Enrollment has completed for Arm 1 and is ongoing for Arm 2.
Intra-subject dose escalation was allowed. Six of the 11 dogs that initiated at 2.5 or 5 mg/kg once daily were escalated and completed the study with dosages of 10 mg/kg twice daily. Among all the dose cohorts, 8 dogs had shrinkage of target lesions >20%; the best tumor responses were between 45-49% reduction in the sum of target lesions in two dogs.

BTK = BTK (Homo sapiens, UniProt Q06187); experiment: BTK target occupancy in relapsed/refractory CLL patients; settings: at lower dosage versus ibrutinib, FIG. 144
BTK, sequence (Q06187 whole entry): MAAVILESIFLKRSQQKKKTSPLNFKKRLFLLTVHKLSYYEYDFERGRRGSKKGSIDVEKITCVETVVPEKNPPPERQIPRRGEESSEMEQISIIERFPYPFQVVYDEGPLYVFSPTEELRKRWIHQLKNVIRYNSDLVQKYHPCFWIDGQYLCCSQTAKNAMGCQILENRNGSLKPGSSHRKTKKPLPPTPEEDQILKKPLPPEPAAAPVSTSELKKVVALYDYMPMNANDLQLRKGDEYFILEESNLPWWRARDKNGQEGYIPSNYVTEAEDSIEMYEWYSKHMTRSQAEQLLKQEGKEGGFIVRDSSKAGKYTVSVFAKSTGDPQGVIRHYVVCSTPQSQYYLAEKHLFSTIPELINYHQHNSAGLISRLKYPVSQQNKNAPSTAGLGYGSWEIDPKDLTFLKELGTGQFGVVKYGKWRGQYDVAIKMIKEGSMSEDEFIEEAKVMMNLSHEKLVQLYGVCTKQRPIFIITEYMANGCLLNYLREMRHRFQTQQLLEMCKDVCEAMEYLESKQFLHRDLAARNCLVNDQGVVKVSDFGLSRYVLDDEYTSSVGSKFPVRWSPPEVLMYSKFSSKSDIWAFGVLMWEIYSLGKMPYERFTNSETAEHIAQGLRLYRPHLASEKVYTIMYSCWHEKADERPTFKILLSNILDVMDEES

EGFR = EGFR (Homo sapiens, UniProt P00533); experiment: EGF-induced EGFR phosphorylation in A431 cells (phosphoflow); settings: 10 μM; A431 human epidermoid cancer cell line
EGFR, sequence (P00533 25-1210): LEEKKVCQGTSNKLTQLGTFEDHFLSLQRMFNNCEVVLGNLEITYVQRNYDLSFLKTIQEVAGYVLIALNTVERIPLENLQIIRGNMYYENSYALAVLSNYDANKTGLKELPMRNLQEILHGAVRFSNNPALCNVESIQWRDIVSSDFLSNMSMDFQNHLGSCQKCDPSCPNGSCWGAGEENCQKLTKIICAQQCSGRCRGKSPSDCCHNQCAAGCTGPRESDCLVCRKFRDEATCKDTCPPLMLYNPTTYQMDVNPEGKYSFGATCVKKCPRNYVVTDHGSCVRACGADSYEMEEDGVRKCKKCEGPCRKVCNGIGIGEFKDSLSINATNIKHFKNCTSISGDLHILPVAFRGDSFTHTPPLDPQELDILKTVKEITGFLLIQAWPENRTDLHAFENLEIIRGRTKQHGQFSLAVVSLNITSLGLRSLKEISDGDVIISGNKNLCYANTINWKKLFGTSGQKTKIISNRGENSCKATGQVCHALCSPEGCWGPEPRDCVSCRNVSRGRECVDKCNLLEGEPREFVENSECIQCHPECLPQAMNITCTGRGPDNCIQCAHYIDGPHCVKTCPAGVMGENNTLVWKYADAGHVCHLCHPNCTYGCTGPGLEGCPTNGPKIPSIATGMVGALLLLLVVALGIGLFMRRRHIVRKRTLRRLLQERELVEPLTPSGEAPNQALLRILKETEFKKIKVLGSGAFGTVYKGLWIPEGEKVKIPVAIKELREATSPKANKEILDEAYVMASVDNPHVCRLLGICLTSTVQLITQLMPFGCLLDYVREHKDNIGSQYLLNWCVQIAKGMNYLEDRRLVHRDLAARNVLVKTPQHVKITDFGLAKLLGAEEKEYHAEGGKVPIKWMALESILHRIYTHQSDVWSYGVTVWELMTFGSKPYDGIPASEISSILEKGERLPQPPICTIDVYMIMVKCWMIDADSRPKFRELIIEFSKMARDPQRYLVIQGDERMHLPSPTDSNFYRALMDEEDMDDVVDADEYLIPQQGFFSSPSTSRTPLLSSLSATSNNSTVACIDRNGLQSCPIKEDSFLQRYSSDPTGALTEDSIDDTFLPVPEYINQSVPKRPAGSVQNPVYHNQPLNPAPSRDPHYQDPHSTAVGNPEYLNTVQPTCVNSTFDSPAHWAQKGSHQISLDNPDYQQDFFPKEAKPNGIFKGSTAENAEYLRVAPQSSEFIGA

KrasLA2 NSCLC = experiment: KrasLA2 non-small cell lung cancer (NSCLC) model; assay type: in vivo
Excerpt: FIG. 161 illustrates the dosing schema used with the KrasLA2 non-small cell lung cancer (NSCLC) model.
FIG. 162 illustrates tumor volume variation from baseline as assessed by microcomputerized tomography (microCT) in the KrasL2 NSCLC model.

[3] = Brain PK experiments (brain and CSF versus plasma); assay type: in vivo, Sprague-Dawley rats; settings: rats, 5 or 30 mg/kg/day
Excerpt: Two vehicle treated rats were sacrificed on each sampling day for comparison.

Txk = Txk (Homo sapiens, UniProt P42681); experiment: biochemical
Txk, sequence (P42681 whole entry): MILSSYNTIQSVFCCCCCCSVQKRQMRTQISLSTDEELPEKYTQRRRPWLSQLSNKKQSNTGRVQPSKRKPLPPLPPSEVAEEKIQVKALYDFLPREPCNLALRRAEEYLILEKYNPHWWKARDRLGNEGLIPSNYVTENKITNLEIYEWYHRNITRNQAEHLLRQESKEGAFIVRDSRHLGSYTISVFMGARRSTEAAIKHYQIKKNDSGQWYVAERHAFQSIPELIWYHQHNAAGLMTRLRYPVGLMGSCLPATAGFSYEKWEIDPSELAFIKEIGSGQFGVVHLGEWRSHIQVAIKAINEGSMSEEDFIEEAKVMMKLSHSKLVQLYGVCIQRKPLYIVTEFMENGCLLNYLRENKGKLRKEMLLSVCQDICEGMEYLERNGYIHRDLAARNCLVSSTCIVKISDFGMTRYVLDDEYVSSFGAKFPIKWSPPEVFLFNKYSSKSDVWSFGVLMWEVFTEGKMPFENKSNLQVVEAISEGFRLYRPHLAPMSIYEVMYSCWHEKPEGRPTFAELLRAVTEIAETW

CC#CC(=O)N1CCC[C@H]1c1nc(-c2ccc(C(=O)Nc3ccccn3)cc2)c2c(N)nccn12 [Formula (XVIII), (S)-4-(8-amino-3-(1-(but-2-ynoyl)pyrrolidin-2-yl)imidazo[1,5-a]pyrazin-1-yl)-N-(pyridin-2-yl)benzamide]
Immature myeloid infiltrate (MDSCs) [1]: decreased immature myeloid infiltrate
Immunosuppressive Tregs [1]: reduced the number of immunosuppressive Tregs
Tumor associated macrophages [1]: reduced the number of tumor associated macrophages
Tumor burden [1]: significantly reduced tumor burden
Inhibition of trastuzumab-stimulated NK cell cytokine release (NK cells): no inhibitory effect
CD8+ T cells (ID8 ovarian cancer): increase in CD8^+ T cells
ID8 ovarian cancer growth (ID8 ovarian cancer): impairs ID8 ovarian cancer growth
Immunosuppressive B cells (ID8 ovarian cancer): significant reduction in immunosuppressive B cells
Immunosuppressive tumor-associated lymphocytes (ID8 ovarian cancer): significant reduction in immunosuppressive tumor-associated lymphocytes
Tumor associated Tregs (ID8 ovarian cancer): significant reduction in immunosuppressive tumor associated Tregs
Respiratory function [2]: no treatment-related adverse effects
CR by investigator evaluation (canine B cell lymphoma): 0/21
BTK target occupancy (BTK): improved
Inhibition of in vitro EGFR phosphorylation (EGFR): no inhibition
immunosuppressive tumor associated TAMs (KrasLA2 NSCLC; FIG. 163): significant reduction
immunosuppressive tumor associated MDSCs (KrasLA2 NSCLC; FIG. 164): significant reduction
immunosuppressive tumor associated Tregs (KrasLA2 NSCLC; FIG. 165): significant reduction
Levels in brain and CSF samples [3]: low but detectable levels
IC50 (Txk): 291 nM
